According to patent US20150231236A1, “METHODS FOR TREATING PATIENTS WITH HYPERCHOLESTEROLEMIA THAT IS NOT ADEQUATELY CONTROLLED BY MODERATE-DOSE STATIN THERAPY” (Regeneron Pharmaceuticals, Inc., priority 2014, published 2015):

System: patients with hypercholesterolemia at high CV risk not adequately controlled with atorvastatin (20 mg or 40 mg)
Assay: Example 2: randomized, double-blind trial, lipid efficacy of mAb316P add-on to atorvastatin vs EZE add-on, atorvastatin dose doubling or switch to rosuvastatin
Type: in vivo, human
Protocol: The present study was a randomized, double-blind, active-comparator, parallel-group study in patients at high CV risk with non-FH or heFH who are not adequately controlled with atorvastatin (20 mg or 40 mg) with or without other lipid-modifying therapy (LMT) (excluding EZE). The study design is illustrated in FIG. 1. Patients who entered the study were taking either atorvastatin 20 mg or atorvastatin 40 mg. The former patients were randomized to 1 of 3 treatment arms (arms 1 to 3); the latter patients were randomized to 1 of 4 treatment arms (arms 4 to 7). The treatment arms are as follows:
(1) mAb316P+atorvastatin 20 mg+placebo-EZE; (2) Placebo-mAb316P+atorvastatin 40 mg+placebo-EZE; and (3) Placebo-mAb316P+atorvastatin 20 mg+EZE 10 mg.
(4) mAb316P+atorvastatin 40 mg+placebo-EZE; (5) Placebo-mAb316P+atorvastatin 80 mg+placebo-EZE; (6). Placebo-mAb316P+rosuvastatin 40 mg+placebo-EZE; and (7) Placebo-mAb316P+atorvastatin 40 mg+EZE 10 mg.
(B) a double-blind treatment period of 24 weeks. Each patient received a SC injection Q2W (mAb316P or placebo-mAb316P) and was administered (or instructed to take) 2 oral blinded medications daily (a statin [atorvastatin or rosuvastatin] and EZE or placebo-EZE). The first injection of mAb316P or placebo-mAb316P was administered at the clinical site on day 1, after study assessments were completed, and as soon as possible after the patient was randomized into the study. The patient/caregiver administered subsequent injections outside of the clinic according to the dosing schedule. On days where the clinic study visit coincided with dosing, the dose of study drugs (injectable and oral) were administered after all study assessments had been performed and all laboratory samples collected. The last dose of mAb316P or placebo-mAb316P was administered at week 22. The last dose of daily oral study drugs was administered at week 24. At week 12, based on their baseline CV risk, certain patients randomized to mAb316P in a blinded manner, had their dose increased as follows:
Each patient received a subcutaneous (SC) injection once every two weeks (Q2W) (mAb316P or placebo-mAb316P) and took 2 oral blinded medications daily (a statin [atorvastatin or rosuvastatin] and EZE or placebo-EZE).
The injectable study treatment was a single SC injection of 1 mL for a 75 mg or 150 mg dose of mAb316P or placebo-mAb316P provided in an auto-injector, administered in the abdomen, thigh, or outer area of the upper arm. The first injection of study drug was administered at the clinical site, as soon as possible after the patient was randomized into the study. The patient was monitored at the clinical site for at least 30 minutes following the first injection. The patient/caregiver administered subsequent injections outside of the clinic, according to the dosing schedule. On days where the clinic study visit coincided with dosing, the dose of study drug was administered after all study assessments have been performed and all laboratory samples collected.
The dose of mAb316P was increased, in a blinded manner, from 75 mg to 150 mg SC Q2W, starting at week 12, based on baseline CV risk in the following circumstances:
The primary efficacy endpoint was the percent change in calculated LDL-C from baseline to week 24, which is defined as: 100× (calculated LDL-C value at week 24−calculated LDL-C value at baseline)/calculated LDL-C value at baseline. The baseline calculated LDL-C value was the last LDL-C level obtained before the first double-blind study drug injection. The calculated LDL-C at week 24 will be the LDL-C level obtained within the week 24 analysis window and during the main efficacy period. The main efficacy period was defined as the time from the first double-blind study drug injection up to 21 days after the last double-blind study drug injection or up to the upper limit of the week 24 analysis window, whichever comes first.
Total-C, HDL-C, TG, ApoB, ApoA-1, and Lp (a) were directly measured by a central laboratory. […]

CC(C)c1nc(N(C)S(C)(=O)=O)nc(-c2ccc(F)cc2)c1/C=C/[C@@H](O)C[C@@H](O)CC(=O)O [rosuvastatin, reference compound]
LDL-C W24 % change from baseline, LS mean (SE) (ITT population, week 24, treatment arm as labelled): −21.4% | Calculated LDL-C LS mean (SE), % Change from Baseline (Week 4): −22.4 (2.8) % | Calculated LDL-C LS mean (SE), Change from Baseline (Week 4): −25.2 (3.0) | Calculated LDL-C LS mean (SE), Value (mg/dL) (Week 4): 83.5 (3.0) mg/dL | Calculated LDL-C LS mean (SE), % Change from Baseline (Week 8): −21.0 (3.2) % | Calculated LDL-C LS mean (SE), Change from Baseline (Week 8): −22.9 (3.3) | Calculated LDL-C LS mean (SE), Value (mg/dL) (Week 8): 85.8 (3.3) mg/dL | Calculated LDL-C LS mean (SE), % Change from Baseline (Week 12): −23.3 (3.2) % | Calculated LDL-C LS mean (SE), Change from Baseline (Week 12): −26.3 (3.5) | Calculated LDL-C LS mean (SE), Value (mg/dL) (Week 12): 82.4 (3.5) mg/dL | Calculated LDL-C LS mean (SE), % Change from Baseline (Week 16): −15.7 (3.5) % | Calculated LDL-C LS mean (SE), Change from Baseline (Week 16): −18.7 (3.8) | Calculated LDL-C LS mean (SE), Value (mg/dL) (Week 16): 90.0 (3.8) mg/dL | Calculated LDL-C LS mean (SE), % Change from Baseline (Week 24): −21.4 (4.2) % | Calculated LDL-C LS mean (SE), Change from Baseline (Week 24): −23.1 (4.5) | Calculated LDL-C LS mean (SE), Value (mg/dL) (Week 24): 85.6 (4.5) mg/dL | patients achieving the more stringent LDL-C goal of <70 mg/dL (Week 24, calculated LDL-C, across atorvastatin 20 mg and 40 mg regimens): 42.2% | reduced LDL-C levels by (atorvastatin 40 mg regimen, week 24, add-on mAb316P, add-on ezetimibe, doubling of atorvastatin dose or switch to rosuvastatin 40 mg): 21.4% | Proportion of Patients Reaching LDL-C goal (%) (week 24, calculated LDL-C <70 mg/dL very high risk or <100 mg/dL high risk, combined estimate): 62.2%
